Measured values published in ChEMBL document CHEMBL1144588, “Synthesis and SAR of 3,5-diamino-piperidine derivatives: novel antibacterial translation inhibitors as aminoglycoside mimetics” (Bioorg Med Chem Lett, 2007).
Converted amounts (≈) assume the structure as drawn.

Columns and labels:
Staphylococcus aureus = test: Antibacterial activity against Staphylococcus aureus ATCC 25923; format: functional
Pseudomonas aeruginosa = test: Antimicrobial activity against Pseudomonas aeruginosa; format: functional
Escherichia coli = test: Inhibition of protein synthesis in Escherichia coli by coupled transcription-translation assay; format: functional, organism-based

Compound	MIC (Staphylococcus aureus) [µg/mL]	MIC90 (Pseudomonas aeruginosa) [µg/mL]	IC50 (Escherichia coli) [µM]
N[C@@H]1C[C@H](N)CN(c2nc(Nc3ccc(NC(=O)c4ccc(Cl)cc4)c(O)c3)nc(N3C[C@H](N)C[C@H](N)C3)n2)C1	16 (≈ 28.2 µM)	8 (≈ 14.1 µM)	–
NC1CCCN(c2nc(Nc3ccc(Cl)c(Cl)c3)nc(N3CCCC(N)C3)n2)C1 (centres undefined)	–	–	> 1000
NCCN(CCN)c1nc(Nc2ccc(NC(=O)c3ccc(Cl)cc3)c(O)c2)nc(N2C[C@H](N)C[C@H](N)C2)n1	32 (≈ 57.5 µM)	–	18
N[C@@H]1C[C@H](N)CN(c2nc(Nc3ccc(NC(=O)c4ccc5ccccc5c4O)cc3)nc(N3C[C@@H](N)C[C@H]3CO)n2)C1	8 (≈ 13.7 µM)	–	19
NC1CN(c2nc(Nc3ccc(NC(=O)c4ccc(Cl)cc4)c(O)c3)nc(N3C[C@H](N)C[C@H](N)C3)n2)C1	–	–	14
NC(=O)C1CCN(c2nc(Nc3ccc(NC(=O)c4ccc(Cl)cc4)c(O)c3)nc(N3C[C@H](N)C[C@H](N)C3)n2)CC1	–	–	> 1000
Cc1ccc(S(=O)(=O)N(Cc2ccccc2)c2ccc(Nc3nc(N4C[C@H](N)C[C@H](N)C4)nc(N4C[C@@H](N)[C@@H](N)C4)n3)cc2O)cc1	16 (≈ 24.2 µM)	–	36
Cc1ccc(S(=O)(=O)N(Cc2ccccc2)c2ccc(Nc3nc(N4CCC(C(N)=O)CC4)nc(N4C[C@H](N)C[C@H](N)C4)n3)cc2O)cc1	–	–	> 1000
N[C@@H]1C[C@H](N)CN(c2nc(Nc3ccc(NC(=O)c4ccc(Cl)cc4)c(O)c3)nc(N3CCCC(O)C3)n2)C1 (some centres undefined)	32 (≈ 57.8 µM)	–	40
NCCN(CCN)c1nc(Nc2ccc(NC(=O)c3ccc4ccccc4c3O)cc2)nc(N(CCN)CCN)n1	–	–	7
CN[C@@H]1C[C@H](NC)CN(c2nc(Nc3ccc(Cl)c(Cl)c3)nc(N3C[C@H](NC)C[C@H](NC)C3)n2)C1	–	–	5
N[C@@H]1C[C@H](N)CN(c2nc(Nc3ccc(NC(=O)c4ccc(Cl)cc4)c(O)c3)nc(N3C[C@@H](O)[C@@H](O)C3)n2)C1	64 (≈ 115 µM)	–	77
N[C@@H]1C[C@H](N)CN(c2nc(Nc3ccc(NC(=O)c4ccc5ccccc5c4O)cc3)nc(N3C[C@H](N)C[C@H](N)C3)n2)C1	–	–	7
N[C@@H]1C[C@H](N)CN(c2nc(Nc3ccc(NC(=O)c4ccc(Cl)cc4)c(O)c3)nc(N3C[C@@H](N)C[C@@H](O)C3)n2)C1	64 (≈ 112 µM)	–	40
NC[C@@H]1CN(c2nc(Nc3ccc(NC(=O)c4ccc(Cl)cc4)c(O)c3)nc(N3C[C@H](N)C[C@H](N)C3)n2)CC[C@@H]1O	32 (≈ 54.9 µM)	–	31
N[C@@H]1C[C@H](N)CN(c2nc(Nc3ccc(NC(=O)c4ccc5ccccc5c4O)cc3)nc(N3C[C@@H](N)C[C@@H](O)C3)n2)C1	8 (≈ 13.7 µM)	–	17
Cc1ccc(S(=O)(=O)N(Cc2ccccc2)c2ccc(Nc3nc(N4C[C@H](N)C[C@H](N)C4)nc(N4C[C@@H](N)C[C@@H](O)C4)n3)cc2O)cc1	16 (≈ 23.7 µM)	–	17
N[C@@H]1C[C@H](O)CN(c2nc(Nc3ccc(NC(=O)c4ccc5ccccc5c4O)cc3)nc(N3C[C@@H](N)C[C@@H](O)C3)n2)C1	–	–	100
NC[C@@H]1C[C@H](N)CN1c1nc(Nc2ccc(NC(=O)c3ccc4ccccc4c3O)cc2)nc(N2C[C@H](N)C[C@H](N)C2)n1	2 (≈ 3.43 µM)	–	10
Cc1ccc(S(=O)(=O)N(Cc2ccccc2)c2ccc(Nc3nc(N(CCN)CCN)nc(N4C[C@H](N)C[C@H](N)C4)n3)cc2O)cc1	8 (≈ 12.1 µM)	–	1
Cc1ccc(S(=O)(=O)N(Cc2ccccc2)c2ccc(Nc3nc(N4C[C@H](N)C[C@H](N)C4)nc(N4C[C@@H](N)C[C@H]4CN)n3)cc2O)cc1	2 (≈ 2.97 µM)	–	13
NC[C@@H]1C[C@H](N)CN1c1nc(Nc2ccc(NC(=O)c3ccc4ccccc4c3O)cc2)nc(N2C[C@H](N)C[C@@H]2CN)n1	–	–	8
Cc1ccc(S(=O)(=O)N(Cc2ccccc2)c2ccc(Nc3nc(N4C[C@H](N)C[C@H](N)C4)nc(N4CC[C@H](O)[C@@H]4CN)n3)cc2O)cc1	8 (≈ 11.9 µM)	–	21
NC1CCN(c2nc(Nc3ccc(Cl)c(Cl)c3)nc(N3CCC(N)CC3)n2)CC1	–	–	800
NC[C@@H]1C[C@H](CN)CN(c2nc(Nc3ccc(NC(=O)c4ccc5ccccc5c4O)cc3)nc(N3C[C@H](N)C[C@H](N)C3)n2)C1	4 (≈ 6.54 µM)	–	8
NC[C@@H]1C[C@H](CN)CN(c2nc(Nc3ccc(NC(=O)c4ccc(Cl)cc4)c(O)c3)nc(N3C[C@H](N)C[C@H](N)C3)n2)C1	16 (≈ 26.8 µM)	–	11
N[C@@H]1C[C@H](N)CN(c2nc(Nc3ccc(NC(=O)c4ccc5ccccc5c4O)cc3)nc(N3C[C@@H](O)[C@@H](O)C3)n2)C1	32 (≈ 56 µM)	–	72
Cc1ccc(S(=O)(=O)N(Cc2ccccc2)c2ccc(Nc3nc(N4C[C@H](N)C[C@H](N)C4)nc(N4C[C@H](CN)C[C@H](CN)C4)n3)cc2O)cc1	8 (≈ 11.4 µM)	–	1
NCCN(CCN)c1nc(Nc2ccc(NC(=O)c3ccc4ccccc4c3O)cc2)nc(N2C[C@H](N)C[C@H](N)C2)n1	8 (≈ 14 µM)	–	10
O=C(N[C@H](CO)[C@H](O)c1ccc([N+](=O)[O-])cc1)C(Cl)Cl [CHLORAMPHENICOL]	8 (≈ 24.8 µM)	–	–

Continued by falling IC50 (Escherichia coli), values first:

MIC (Staphylococcus aureus) [µg/mL]	MIC90 (Pseudomonas aeruginosa) [µg/mL]	IC50 (Escherichia coli) [µM]	Compound
16 (≈ 28.1 µM)	–	310	N[C@@H]1C[C@H](N)CN(c2nc(Nc3ccc(NC(=O)c4ccc5ccccc5c4O)cc3)nc(N3CCCC(O)C3)n2)C1 (some centres undefined)
16 (≈ 28.9 µM)	–	58	N[C@@H]1C[C@H](N)CN(c2nc(Nc3ccc(NC(=O)c4ccc(Cl)cc4)c(O)c3)nc(N3C[C@@H](N)[C@@H](N)C3)n2)C1
8 (≈ 12.1 µM)	–	44	Cc1ccc(S(=O)(=O)N(Cc2ccccc2)c2ccc(Nc3nc(N4CCCC(O)C4)nc(N4C[C@H](N)C[C@H](N)C4)n3)cc2O)cc1 (some centres undefined)
32 (≈ 48.4 µM)	–	43	Cc1ccc(S(=O)(=O)N(Cc2ccccc2)c2ccc(Nc3nc(N4C[C@H](N)C[C@H](N)C4)nc(N4C[C@@H](O)[C@@H](O)C4)n3)cc2O)cc1
16 (≈ 23.2 µM)	–	27	Cc1ccc(S(=O)(=O)N(Cc2ccccc2)c2ccc(Nc3nc(N4C[C@H](N)C[C@H](N)C4)nc(N4CC[C@H](O)[C@H](CN)C4)n3)cc2O)cc1
16 (≈ 26.7 µM)	–	21	NC[C@@H]1CN(c2nc(Nc3ccc(NC(=O)c4ccc5ccccc5c4O)cc3)nc(N3C[C@H](N)C[C@H](N)C3)n2)CC[C@@H]1O
32 (≈ 56.2 µM)	–	19	NC[C@H]1[C@@H](O)CCN1c1nc(Nc2ccc(NC(=O)c3ccc(Cl)cc3)c(O)c2)nc(N2C[C@H](N)C[C@H](N)C2)n1
–	–	16	N[C@@H]1C[C@H](N)CN(c2ncnc(Nc3ccc(NC(=O)c4ccc5ccccc5c4O)cc3)n2)C1
8 (≈ 11.9 µM)	–	15	Cc1ccc(S(=O)(=O)N(Cc2ccccc2)c2ccc(Nc3nc(N4C[C@H](N)C[C@H](N)C4)nc(N4C[C@@H](N)C[C@H]4CO)n3)cc2O)cc1
32 (≈ 56.2 µM)	–	13	N[C@@H]1C[C@H](N)CN(c2nc(Nc3ccc(NC(=O)c4ccc(Cl)cc4)c(O)c3)nc(N3C[C@@H](N)C[C@H]3CO)n2)C1
32 (≈ 56.3 µM)	–	12	NC[C@@H]1C[C@H](N)CN1c1nc(Nc2ccc(NC(=O)c3ccc(Cl)cc3)c(O)c2)nc(N2C[C@H](N)C[C@H](N)C2)n1
160 (≈ 254 µM)	–	11	Cc1ccc(S(=O)(=O)N(Cc2ccccc2)c2ccc(Nc3nc(N4CC(N)C4)nc(N4C[C@H](N)C[C@H](N)C4)n3)cc2O)cc1
–	–	10	N[C@@H]1C[C@H](N)CN(c2nc(Nc3ccc(Cl)c(Cl)c3)nc(N3C[C@H](N)C[C@H](N)C3)n2)C1
16 (≈ 27.4 µM)	–	10	NC[C@H]1[C@@H](O)CCN1c1nc(Nc2ccc(NC(=O)c3ccc4ccccc4c3O)cc2)nc(N2C[C@H](N)C[C@H](N)C2)n1
8 (≈ 13.1 µM)	–	8	CN[C@@H]1C[C@H](NC)CN(c2nc(Nc3ccc(NC(=O)c4ccc5ccccc5c4O)cc3)nc(N3C[C@H](N)C[C@H](N)C3)n2)C1
8 (≈ 11.9 µM)	–	3	Cc1ccc(S(=O)(=O)N(Cc2ccccc2)c2ccc(Nc3nc(N4C[C@H](N)C[C@H](N)C4)nc(N4C[C@H](N)C[C@H](N)C4)n3)cc2O)cc1
